# Measurements published in US7605185B2, “Treatment of arrhythmia by retinoids affecting signal transduction” (priority 1999, dated 2009).
# Columns and labels:
# cardiac myocytes = experiment: TUNEL apoptosis staining with anti-myosin counterstain, confocal microscopy; assay type: in vivo, mouse
# Text: 1 week old litters of C57/b mice (around 3 g body weight) were divided into groups of five to 10 animals, to be treated with all-trans-RA in carrier, 9cis-RA in carrier, or carrier (canola oil, Sigma). Every treatment group was assigned to one nursing mother. Groups larger than 10 pups were avoided, to exclude limited feeding frequency as experimental variable. […] DMSO or ethanol content was limited to 0.1%. Pups were gavage-fed from a tuberculin syringe connected with a bent vein catheter. The strong suckling reflex facilitated delivery of the viscous and odorous formulation. Depending on the territorial protection behaviour of the mother, pups were briefly rolled in cage stray after gavage to prevent triggering maternal infanticide behaviour through unusual smell of the pups. For two hours after gavage, pups were carefully monitored to prevent maternal infanticide. Every 24 h, the weight was recorded.
# (§1) For uptake kinetics, pairs of treated pups were sacrificed by decapitation after 1 h, 2 h, 4 h, 8 h, 16 h, 24 h, 36 h and 72 h. Organs were removed under the dissection microscope and frozen in liquid nitrogen. […]
# [1] = tested on: mouse heart (cardiomyocytes); experiment: Perinatal mouse heart model: cardiac growth, heart size and weight after retinoid gavage; assay type: in vivo
# Method: (§2) 1 week old litters of C57/b mice (around 3 g body weight) were divided into groups of five to 10 animals, to be treated with all-trans-RA in carrier, 9cis-RA in carrier, or carrier (canola oil, Sigma). Every treatment group was assigned to one nursing mother. Groups larger than 10 pups were avoided, to exclude limited feeding frequency as experimental variable. A retinoid preparation for gavage was formulated such that every animal received a maximum of 150 μl volume containing 40 mg/kg all-trans RA in carrier, 12 mg/kg or 20 mg/kg 9cis-RA in carrier, or carrier alone. DMSO or ethanol content was limited to 0.1%. Pups were gavage-fed from a tuberculin syringe connected with a bent vein catheter. The strong suckling reflex facilitated delivery of the viscous and odorous formulation. Depending on the territorial protection behaviour of the mother, pups were briefly rolled in cage stray after gavage to prevent triggering maternal infanticide behaviour through unusual smell of the pups. For two hours after gavage, pups were carefully monitored to prevent maternal infanticide. Every 24 h, the weight was recorded.
# (§3) For uptake kinetics, pairs of treated pups were sacrificed by decapitation after 1 h, 2 h, 4 h, 8 h, 16 h, 24 h, 36 h and 72 h. Organs were removed under the dissection microscope and frozen in liquid nitrogen. Hearts were dissected under the surgical dissection microscope; tissues were divided into atria, ventricles, and enriched in conductance system (a tissue preparation containing the ventricular septa with the Purkinje fibers and the atrial region between the aorta and the pulmonal artery (outflow tract) with the sinus node). For immunohistology, pups were sacrificed after 72 h, hearts were rinsed in PBS, weighed and fixed in 4% para-formaldehyde in PBS before embedding in OCT for standard cryostat procedures. If pups were on the brink of death (typically between 36 and 72 h after gavage), they were sacrificed, and hearts were collected for confocal microscopy or HPLC.
# IGFBP5 = experiment: Confocal immunohistology of IGF pathway proteins in cardiac cell types; assay type: in vivo, mouse; settings: after treatment, dose not stated
# Method: as §2, with “The strong suckling reflex facilitated delivery of the viscous and odorous formulation. Depending on the territorial protection behaviour of the mother, pups were briefly rolled in cage stray after gavage to prevent triggering maternal infanticide behaviour through unusual smell of the pups.” left out, “recorded. […]” for “recorded.”
# The mechanism of apoptosis was investigated using commercially available primary antibodies of highest purity, at dilutions recommended by the manufacturer, against IGF-1, IGF-II, the entire set of IGFbinding proteins (IGFBP1-5), IGF-R, mitochondrial Mn-dependent superoxide dismutase Mn-SOD, and cytoplasmic Cu/Zn-dependent superoxide dismutase Cu/Zn-SOD. […] Confocal images were captured and processed for quantitative analysis by Zeiss LSM-300 software. […] At least five independent regions of similar size were analyzed per tissue type and retinoid treatment condition. […]
# [2] = Death of mouse pups after gavage; assay type: in vivo; settings: nonmutagenic amounts
# Method: as §2, §1
# [3] = tested on: endogenous peroxidase activity; experiment: Gas release from heart tissue sections on addition of H2O2; assay type: in vivo, mouse; settings: 20 mg/kg
# Method: as §2, with “The strong suckling reflex facilitated delivery of the viscous and odorous formulation. Depending on the territorial protection behaviour of the mother, pups were briefly rolled in cage stray after gavage to prevent triggering maternal infanticide behaviour through unusual smell of the pups.” left out
# Another observation with significant ramifications is the substantial activation of pathways metabolizing reactive oxygen species in cardiac tissue after administration of 20 mg/kg of 9cis-RA. […] Second, very high upregulation of MnSOD protein signal was detected in connexin-positive cells of the cardiac outflow tract; the signal of 3.4 fold upregulation localizes to the region of the atrium surrounding the sino-atrial node; the signal of 11 fold upregulation localizes most likely to the area of the sino-atrial node proper. […]
# [4] = tested on: cardiac conductance cells and cardiac neurons; experiment: TUNEL apoptosis staining with connexin37/40 or neuron-specific enolase counterstain, confocal microscopy; assay type: in vivo, mouse
# Method: as §2, §3
# For confocal microscopy, cryostat sections were first stained for apoptotic DNA strand breaks according to the TUNEL protocol (using the commercially available Apoptag™ kit, Oncor Inc., Gaithersburg Md.) and counterstained with rabbit anti-connexin37 antibody or rabbit anti-connexin40 antibody for conductance cells, or with rabbit anti-myosin antibody for cardiac myocytes. Immunodetection of connexin isoforms 40 and 43 has been established as a useful method to detect cells of the cardiac conductance system in rodents (Gourdie et al., The spatial distribution and relative abundance of gap-junctional connexin40 and connexin43 correlate to functional properties of components of the cardiac atrioventricular conducting system, J. Cell Science 105 (Pt 4) 985-991, 1993); because of the relatively weak signal of connexin40, the connexin isoform 37 can be used as equivalent marker for the conductance system in the mouse model (Willecke K et al, 1991; Willecke K, personal communication). The combination of rabbit anti-Neuron-specific enolase with propidium iodide followed published procedures (Current Protocols in Molecular Biology) and was used to identify cardiac neurons with advanced apoptotic condensation of nuclei. Procedures of immunohistology and image analysis are further described in detail in Graupner, WO 00/53236.
# [5] = tested on: mitochondrial Mn-dependent superoxide dismutase Mn-SOD; experiment: Quantitative confocal immunohistology of Mn-SOD protein signal in cardiac outflow tract; assay type: in vivo, mouse; settings: 20 mg/kg; for upregulation of MnSOD protein signal: connexin-positive cells
# Method: as §2, with “recorded. […]” for “recorded.”
# The mechanism of apoptosis was investigated using commercially available primary antibodies of highest purity, at dilutions recommended by the manufacturer, against IGF-1, IGF-II, the entire set of IGFbinding proteins (IGFBP1-5), IGF-R, mitochondrial Mn-dependent superoxide dismutase Mn-SOD, and cytoplasmic Cu/Zn-dependent superoxide dismutase Cu/Zn-SOD. […] Confocal images were captured and processed for quantitative analysis by Zeiss LSM-300 software. Briefly, the pixel intensities per unit area amounting to channel background were determined for each antibody/seconday antibody combination and subtracted from the experimental pixel intensities. […] At least five independent regions of similar size were analyzed per tissue type and retinoid treatment condition. Averaged pixel intensities per unit area upon 9cis retinoid induction were expressed as multiples of averaged pixel intensities per unit area in the absence of 9cis retinoid induction (fold induction +/−s.e.m.)
# [6] = higher amounts, 20 mg/kg and higher, mice
# [7] = in vivo administration to mice, dose not stated
smiles,measurement,setting,value
"CC1=C(/C=C/C(C)=C\C=C\C(C)=C\C(=O)O)C(C)(C)CCC1 [9cis-RA, 9-cis retinoic acid]",colocalization of TUNEL signal in cardiac myocytes,cardiac myocytes; 20 mg/kg,No colocalization of TUNEL signal
same,colocalization of TUNEL signal in cardiac myocytes,cardiac myocytes; less than 10 mg/kg,No colocalization of TUNEL signal
same,effect on growth (growth factor-dependent pathway),[1]; 10 mg/kg,growth-inhibitory effect
same,size of the average myocardial myocyte,[1]; 20 mg/kg or less than 10 mg/kg,reduced
same,myocardial growth stunting,[1]; around 10 mg/kg,approached complete growth arrest
same,growth of cardiomyocytes,[1]; [6],reduced growth of cardiomyocytes
same,growth of cardiomyocytes,[1]; [7],reduced growth of cardiomyocytes
same,cell growth in heart,"[1]; moderate amounts, 3-10 mg/kg, mice","reduced growth of cardiomyocytes, cardiac neurons, and cells of the cardiac conductance system"
same,IGFBP5 expression in cardiac myocytes,IGFBP5,moderately upregulated
same,death of mouse pups after gavage,[2],sudden death of mouse pups
same,gas bubbles released from myocardial cells on H2O2 addition (endogenous peroxidase activity),[3],remarkable amounts of gas bubbles were released
same,"apoptosis in cardiac conductance cells of perinatal mouse heart (FIG. 3, confocal micrographs)",[4]; 20 mg/kg,colocalization of apoptosis in cardiac conductance cells
same,correlation between apoptosis and conductance cell phenotype,[4]; 20 mg/kg,strong correlation
same,effect on apoptosis,[4]; 40 mg/kg,pro-apoptotic effect
same,apoptosis of cardiac neurons and cardiac pacemaker cells,[4]; [6],apoptosis of cardiac neurons and cardiac pacemaker cells
same,apoptosis in cardiac neurons and cardiac conductance system,[4]; [7],apoptosis in cardiac neurons and cells of the cardiac conductance system
same,correlation between apoptosis and conductance cell type,[4]; less than 10 mg/kg,no correlation
same,immunoreactive Mn-SOD in mitochondria of cells in the cardiac outflow tract (FIG. 4),[5]; versus carrier,upregulation
same,upregulation of MnSOD protein signal,[5]; most likely area of the sino-atrial node proper,11 fold
same,upregulation of MnSOD protein signal,[5]; region of the atrium surrounding the sino-atrial node,3.4 fold
"CC1=C(/C=C/C(C)=C/C=C/C(C)=C/C(=O)O)C(C)(C)CCC1 [all-trans-RA, all-trans retinoic acid]",myocardial growth reduction,[1]; 40 mg/kg,less than 30%
same,correlation between apoptosis and conductance cell type,[4]; 40 mg/kg,no correlation
